Measured values: patent US5935861A, “Diazonium ion assay reagents and methods for their use” (priority 1997, dated 1999)

Format: physicochemical
Source text: . An exemplary synthesis is the synthesis of 2-methyl-3-nitroaniline diazonium ion (2). In this embodiment, 2-methyl-3-nitroaniline (1) is converted to the diazonium ion (2) by reaction with sodium nitrite in an acidic aqueous medium. The reaction is illustrated in Scheme I below. The 2-methyl-3-nitroaniline diazonium ion (2) is capable of reacting with bilirubin to form a detectable product, and is thus useful in assays for detecting and quantitating bilirubin in a sample. […]

In the case of `Cc1c(N)cccc1[N+](=O)[O-]` [2-methyl-3-nitroaniline], the “solubility in water or other aqueous systems (in words)” value was “good solubility in aqueous systems”.
